Like-named read-outs stand apart in the source and are kept apart here.
Key:
hCB1 [1] = target: T1, hCB1 (Homo sapiens, UniProt P21554); experiment: radioligand displacement binding at CB1 (membranes of CHO-K1 cells over-expressing receptor)
Procedure: (§1) All compounds were characterized by H^1 NMR and evaluated using a calcium mobilization assay. […] Further characterization of select compounds was performed using radioligand displacement of [3H]1 and equilibrium dissociation constant (Ki) values were determined.

hCB2 = hCB2 (Homo sapiens, UniProt P34972); experiment: radioligand displacement binding at CB2 ([3H]CP55940, membranes of CHO-K1 cells over-expressing receptor)
Procedure: as §1

MDCK = MDCK BBB Assay; format: in vitro ADME; conditions: MDCK BBB assay
hCB1 [2] = target: T1, hCB1; experiment: functional fluorescent CB1 activated Gαq16-coupled intracellular calcium mobilization assay in CHO-K1 cells; format: cell-based; design: expressed in transfected cells; host or cells: CHO-K1 (membranes); conditions: average of 3-6 measurements, read-out: Apparent antagonist dissociation constant (Ke) at hCB1
[3] = read-out: Binding affinity (Ki) at hCB2, displacement of [3H]CP55940, CHO-K1 membranes, average of 3-6 measurements
[4] = read-out: Binding affinity (Ki) at hCB1, radioligand displacement, CHO-K1 membranes, average of 3-6 measurements

Sequence of hCB2 (P34972 whole entry): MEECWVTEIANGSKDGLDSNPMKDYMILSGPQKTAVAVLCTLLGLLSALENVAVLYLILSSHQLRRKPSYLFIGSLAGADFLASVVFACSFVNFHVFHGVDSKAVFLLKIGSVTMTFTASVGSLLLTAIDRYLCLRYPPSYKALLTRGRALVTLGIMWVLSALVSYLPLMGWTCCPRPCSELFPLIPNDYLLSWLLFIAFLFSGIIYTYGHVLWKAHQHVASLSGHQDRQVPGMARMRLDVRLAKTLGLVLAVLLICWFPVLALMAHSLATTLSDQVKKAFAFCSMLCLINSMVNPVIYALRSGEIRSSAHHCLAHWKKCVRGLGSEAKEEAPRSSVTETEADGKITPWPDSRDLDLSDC
T1 sequence (P21554 whole entry): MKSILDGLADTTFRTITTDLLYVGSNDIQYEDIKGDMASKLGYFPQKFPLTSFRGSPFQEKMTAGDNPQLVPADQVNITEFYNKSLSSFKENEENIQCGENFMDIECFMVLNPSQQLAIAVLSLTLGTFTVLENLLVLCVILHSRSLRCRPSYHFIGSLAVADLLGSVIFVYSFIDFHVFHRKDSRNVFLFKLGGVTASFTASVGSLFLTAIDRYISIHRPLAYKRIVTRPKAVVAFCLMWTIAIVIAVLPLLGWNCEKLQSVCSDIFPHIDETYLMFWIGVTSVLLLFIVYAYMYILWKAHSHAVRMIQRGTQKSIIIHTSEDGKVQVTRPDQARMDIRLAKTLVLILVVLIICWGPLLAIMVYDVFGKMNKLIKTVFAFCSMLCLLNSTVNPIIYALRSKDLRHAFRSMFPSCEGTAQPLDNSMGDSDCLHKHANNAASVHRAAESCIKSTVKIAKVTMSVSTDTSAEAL

Row | Kb (hCB1 [2]) [nM] | Ki (hCB2) [nM] | SMILES | Ki (hCB1 [1]) [nM] | melting point [°C] | Ki (hCB2; [3]) [nM] | Ki (hCB1 [1]; [4]) [nM] | % Permeable (MDCK) [%]
1 |  |  | O=C(Nc1ccc(F)cc1F)N1CCN(c2ncnc3c2nc(-c2ccccc2Cl)n3-c2ccc(Cl)cc2)CC1 [Compound 57, 4-[8-(2-Chlorophenyl)-9-(4-chlorophenyl)-9H-purin-6-yl]-N-(2,4-difluorophenyl)piperazine-1-carboxamide] | 9 | 220 to 221 | 3200 |  | 
2 |  |  | O=C(NC1CCCC1)N1CCN(c2ncnc3c2nc(-c2ccccc2Cl)n3-c2ccc(Cl)cc2)CC1 [Compound 117, 4-[8-(2-Chlorophenyl)-9-(4-chlorophenyl)-9H-purin-6-yl]-N-cyclopentylpiperazine-1-carboxamide] |  | 248 to 250 | 740 | 5 | 3
3 | 53 |  | Clc1ccc(-n2c(-c3ccccc3Cl)nc3c(N4CCN(c5nc6ccccc6[nH]5)CC4)ncnc32)cc1 [Compound 123, 6-[4-(1H-benzimidazol-2-yl)piperazin-1-yl]-8-(2-chlorophenyl)-9-(4-chlorophenyl)-9H-purine] |  |  |  |  | 
4 |  |  | O=C(Nc1ccc(F)cc1)N1CCN(c2ncnc3c2nc(-c2ccccc2Cl)n3-c2ccc(Cl)cc2)CC1 [Compound 43, 4-[8-(2-Chlorophenyl)-9-(4-chlorophenyl)-9H-purin-6-yl]-N-(4-fluorophenyl)piperazine-1-carboxamide] |  | 234 to 235 | 2000 | 19 | 
5 |  |  | O=S(=O)(C1CC1)N1CCN(c2ncnc3c2nc(-c2ccccc2Cl)n3-c2ccc(Cl)cc2)CC1 [Compound 84, 8-(2-Chlorophenyl)-9-(4-chlorophenyl)-6-[4-(cyclopropylsulfonyl)piperazin-1-yl]-9H-purine] | 5.3 |  | 2300 |  | 4
6 |  | 76000 | FC(F)(F)Oc1ccccc1CN1CCN(c2ncnc3c2nc(-c2ccccc2Cl)n3-c2ccc(Cl)cc2)CC1 [Compound 112, 8-(2-Chlorophenyl)-9-(4-chlorophenyl)-6-{4-[2-(trifluoromethoxy)benzyl]piperazin-1-yl}-9H-purine] |  | 110 to 111 |  |  | 
7 | 600 |  | N=C(Nc1ccc(F)cc1)NC1CCN(c2ncnc3c2nc(-c2ccccc2Cl)n3-c2ccc(Cl)cc2)CC1 [Compound 27, 1-{1-[8-(2-chlorophenyl)-9-(4-chlorophenyl)-9H-purin-6-yl]piperidin-4-yl}-3-(4-fluorophenyl)guanidine] |  |  |  |  | 
8 |  |  | O=C(Nc1ccc(F)c(F)c1)N1CCN(c2ncnc3c2nc(-c2ccccc2Cl)n3-c2ccc(Cl)cc2)CC1 [Compound 42, 4-[8-(2-Chlorophenyl)-9-(4-chlorophenyl)-9H-purin-6-yl]-N-(3,4-difluorophenyl)piperazine-1-carboxamide] |  | 205 to 207 | 4200 |  | 0
9 | 59 |  | Clc1ccc(-n2c(-c3ccccc3Cl)nc3c(N4CCC(NCc5ccccc5)CC4)ncnc32)cc1 [Compound 37, N-benzyl-1-[8-(2-chlorophenyl)-9-(4-chlorophenyl)-9H-purin-6-yl]piperidin-4-amine] |  |  |  |  | 
10 | 100 |  | Clc1ccc(-n2c(-c3ccccc3Cl)nc3c(N4CCC(Nc5ccncc5)CC4)ncnc32)cc1 [Compound 36, N-{1-[8-(2-chlorophenyl)-9-(4-chlorophenyl)-9H-purin-6-yl]piperidin-4-yl}pyridin-4-amine] |  |  |  |  | 
11 |  |  | CCCCC(=O)N1CCN(c2ncnc3c2nc(-c2ccccc2Cl)n3-c2ccc(Cl)cc2)CC1 [Compound 103, 8-(2-Chlorophenyl)-9-(4-chlorophenyl)-6-(4-pentanoylpiperazin-1-yl)-9H-purine] | 5.5 |  | 403 |  | 0
12 |  |  | O=C(NC1CCCCC1)N1CCN(c2ncnc3c2nc(-c2ccccc2Cl)n3-c2ccc(Cl)cc2)CC1 [Compound 119, 4-[8-(2-chlorophenyl)-9-(4-chlorophenyl)-9H-purin-6-yl]-N-cyclohexylpiperazine-1-carboxamide] |  | 228 to 229 | 620 | 1.4 | 
13 |  |  | O=C(C1COc2ccccc2O1)N1CCN(c2ncnc3c2nc(-c2ccccc2Cl)n3-c2ccc(Cl)cc2)CC1 (stereo not drawn) [Compound 61, 8-(2-Chlorophenyl)-9-(4-chlorophenyl)-6-[4-(2,3-dihydro-1,4-benzodioxin-2-ylcarbonyl)piperazin-1-yl]-9H-purine] | 5.3 |  | 606 |  | 0
14 | 360 |  | Clc1ccc(-n2c(-c3ccccc3Cl)nc3c(N4CCC(NCc5ccncc5)CC4)ncnc32)cc1 [Compound 38, 1-[8-(2-chlorophenyl)-9-(4-chlorophenyl)-9H-purin-6-yl]-N-(pyridin-4-ylmethyl)piperidin-4-amine] |  |  |  |  | 
15 |  |  | O=C(NCC1CCCCC1)N1CCN(c2ncnc3c2nc(-c2ccccc2Cl)n3-c2ccc(Cl)cc2)CC1 [Compound 120, 4-[8-(2-chlorophenyl)-9-(4-chlorophenyl)-9H-purin-6-yl]-N-(cyclohexylmethyl)piperazine-1-carboxamide] |  | 105 to 107 | 740 | 43 | 
16 |  |  | CCCS(=O)(=O)N1CCN(c2ncnc3c2nc(-c2ccccc2Cl)n3-c2ccc(Cl)cc2)CC1 [Compound 79, 8-(2-Chlorophenyl)-9-(4-chlorophenyl)-6-[4-(propylsulfonyl)piperazin-1-yl]-9H-purine] |  |  | 848 | 1.2 | 6
17 |  |  | O=C(Nc1ccccc1F)N1CCN(c2ncnc3c2nc(-c2ccccc2Cl)n3-c2ccc(Cl)cc2)CC1 [Compound 56, 4-[8-(2-Chlorophenyl)-9-(4-chlorophenyl)-9H-purin-6-yl]-N-(2-fluorophenyl)piperazine-1-carboxamide] |  | 214 to 215 | 1300 | 6 | 
18 |  | 1650 | CS(=O)(=O)N1CCN(c2ncnc3c2nc(-c2ccccc2Cl)n3-c2ccc(Cl)cc2)CC1 [Compound 86, 8-(2-Chlorophenyl)-9-(4-chlorophenyl)-6-[4-(methylsulfonyl)piperazin-1-yl]-9H-purine] | 24.4 |  |  |  | 14
19 |  |  | O=C(Nc1ccccn1)N1CCN(c2ncnc3c2nc(-c2ccccc2Cl)n3-c2ccc(Cl)cc2)CC1 [Compound 122, 4-[8-(2-Chlorophenyl)-9-(4-chlorophenyl)-9H-purin-6-yl]-N-(pyridin-2-yl)piperazine-1-carboxamide] |  | 120 to 122 | 7100 | 6 | 1
20 |  |  | O=C(NC1(C(F)(F)F)CCCC1)N1CCN(c2ncnc3c2nc(-c2ccccc2Cl)n3-c2ccc(Cl)cc2)CC1 [Compound 118, 4-[8-(2-Chlorophenyl)-9-(4-chlorophenyl)-9H-purin-6-yl]-N-[1-(trifluoromethyl)cyclopentyl]piperazine-1-carboxamide] |  | 202 to 204 | 1300 | 24 | 
21 |  |  | O=C(Nc1ccccc1)N1CCN(c2ncnc3c2nc(-c2ccccc2Cl)n3-c2ccc(Cl)cc2)CC1 [Compound 121, 4-[8-(2-chlorophenyl)-9-(4-chlorophenyl)-9H-purin-6-yl]-N-phenylpiperazine-1-carboxamide] |  | 121 to 123 | 2400 | 6 | 

Row | SMILES | Kb (hCB1 [2]) [nM] | Ki (hCB2) [nM] | Ki (hCB1 [1]) [nM] | melting point [°C] | Ki (hCB2; [3]) [nM] | Ki (hCB1 [1]; [4]) [nM] | % Permeable (MDCK) [%]
22 | O=C(N1CCN(c2ncnc3c2nc(-c2ccccc2Cl)n3-c2ccc(Cl)cc2)CC1)C(F)(F)F [Compound 87, 8-(2-Chlorophenyl)-9-(4-chlorophenyl)-6-[4-(trifluoroacetyl)piperazin-1-yl]-9H-purine] |  | 134 |  |  |  | 1 | ~100

— patent US10696677B2 (Research Triangle Institute, priority 2016, dated 2020)
